Activity calls are given as the source filed them. The rule behind the calls is not given here.
Columns and labels:
Staphylococcus aureus [1] = assay: Antibacterial activity against Staphylococcus aureus CCM 4516/08 after 24 to 48 hrs by broth microdilution method; assay type: functional, organism-based
Escherichia coli = assay: Antibacterial activity against Escherichia coli CCM 4517 after 24 to 48 hrs by broth microdilution method; assay type: functional, organism-based
Pseudomonas aeruginosa = assay: Antibacterial activity against Pseudomonas aeruginosa CCM 1961 after 24 to 48 hrs by broth microdilution method; assay type: functional, organism-based
Staphylococcus aureus [2] = assay: Antibacterial activity against methicillin-resistant Staphylococcus aureus H 5996/08 clinical isolate after 24 to 48 hrs by broth microdilution method; assay type: functional, organism-based
[3] = system: Staphylococcus epidermidis; assay: Antibacterial activity against Staphylococcus epidermidis H 6966/08 clinical isolate after 24 to 48 hrs by broth microdilution method; assay type: functional, organism-based
Enterococcus sp. [4] = assay: Antibacterial activity against Enterococcus sp. J 14365/08 clinical isolate after 24 to 48 hrs by broth microdilution method; assay type: functional, organism-based
Klebsiella pneumoniae [5] = assay: Antibacterial activity against Klebsiella pneumoniae D 11750/08 clinical isolate after 24 to 48 hrs by broth microdilution method; assay type: functional, organism-based
Klebsiella pneumoniae [6] = assay: Antibacterial activity against ESBL-positive Klebsiella pneumoniae J 14368/08 clinical isolate after 24 to 48 hrs by broth microdilution method; assay type: functional, organism-based
Candida albicans = assay: Antifungal activity against Candida albicans ATCC 44859 after 24 to 48 hrs by two-fold dilution method; assay type: functional, organism-based
Candida tropicalis = assay: Antifungal activity against Candida tropicalis 156 after 24 to 48 hrs by two-fold dilution method; assay type: functional, organism-based
Pichia kudriavzevii = assay: Antifungal activity against Candida krusei E28 after 24 to 48 hrs by two-fold dilution method; assay type: functional, organism-based
Nakaseomyces glabratus = assay: Antifungal activity against Candida glabrata 20/I after 24 to 48 hrs by two-fold dilution method; assay type: functional, organism-based
Trichosporon asahii = assay: Antifungal activity against Trichosporon asahii 1188 after 24 to 48 hrs by two-fold dilution method; assay type: functional, organism-based
Aspergillus fumigatus = assay: Antifungal activity against Aspergillus fumigatus 231 after 24 to 48 hrs by two-fold dilution method; assay type: functional, organism-based
Lichtheimia corymbifera = assay: Antifungal activity against Absidia corymbifera 272 after 24 to 48 hrs by two-fold dilution method; assay type: functional, organism-based
[7] = system: Trichophyton mentagrophytes; assay: Antifungal activity against Trichophyton mentagrophytes 445 after 72 to 120 hrs by two-fold dilution method; assay type: functional, organism-based
[8] = system: Mycobacterium tuberculosis; assay: Antimycobacterial activity against Mycobacterium tuberculosis H37Rv CNCTC My 331/88 after 10 to 14 days by AlamarBlue assay; assay type: functional
Mycobacterium kansasii = assay: Antimycobacterial activity against Mycobacterium kansasii CNCTC My 235/80 after 5 to 7 days by AlamarBlue assay; assay type: functional
[9] = Antimycobacterial activity against Mycobacterium avium subsp. avium Chester CNCTC My 80/72 after 5 days by AlamarBlue assay; assay type: functional; conditions: Chester CNCTC My 80/72, 120 h
Enterococcus sp. [10] = assay: Antibacterial activity against Enterococcus sp. after 24 to 48 hrs by broth microdilution method; assay type: functional

| Compound | Activity (Staphylococcus aureus [1]) | Activity (Escherichia coli) | Activity (Pseudomonas aeruginosa) | Activity (Staphylococcus aureus [2]) | Activity [3] | Activity (Enterococcus sp. [4]) | Activity (Klebsiella pneumoniae [5]) | Activity (Klebsiella pneumoniae [6]) | Activity (Candida albicans) | Activity (Candida tropicalis) | Activity (Pichia kudriavzevii) | Activity (Nakaseomyces glabratus) | Activity (Trichosporon asahii) | Activity (Aspergillus fumigatus) | Activity (Lichtheimia corymbifera) | Activity [7] | MIC [8] | MIC (Mycobacterium kansasii) | MIC [9] | Activity (Enterococcus sp. [10]) |
| --- | --- | --- | --- | --- | --- | --- | --- | --- | --- | --- | --- | --- | --- | --- | --- | --- | --- | --- | --- | --- |
| CCCNc1cnc(C(=O)Nc2ccccc2)cn1 | inactive | inactive | inactive | inactive | inactive | inactive | inactive | inactive | inactive | inactive | inactive | inactive | inactive | inactive | inactive | inactive | 12.2 µM | 48.8 µM | > 100 µg/mL | Active |
| CCCCCCNc1cnc(C(=O)Nc2ccccc2)cn1 | inactive | inactive | inactive | inactive | inactive | inactive | inactive | inactive | inactive | inactive | inactive | inactive | inactive | inactive | inactive | inactive | 2.6 µM | 2.6 µM | > 100 µg/mL | Active |
| CCCCCCCCNc1cnc(C(=O)Nc2ccccc2Cl)cn1 | inactive | inactive | inactive | inactive | inactive | inactive | inactive | inactive | inactive | inactive | inactive | inactive | inactive | inactive | inactive | inactive | > 25 µg/mL | > 25 µg/mL | > 25 µg/mL | Active |

— ChEMBL document CHEMBL3352247, “Synthesis and antimycobacterial evaluation of 5-alkylamino-N-phenylpyrazine-2-carboxamides” (Bioorg Med Chem, 2015)
